Here are results for eleven molecules from patent publication US7906520B2, “Methods for treating pain” (The General Hospital Corporation, priority 2003, dated 2011).

Each structure is given as a SMILES string.

One data set has as its system GTP cyclohydrolase I. To be noted: cited from earlier work; for potency as GTP cyclohydrolase I inhibitor relative to oxidized pterins: more potent than oxidized pterins; for Ki: read-out: Ki, noncompetitive inhibitor of GTP cyclohydrolase I.
The next data set concerns SNI model. The data set is described as follows: SNI model, L-NAME versus DAHP. Type of data set: in vivo. The method, then:
In this figure, closed circles represent nNOS knockout mice with DAHP; open circles, nNOS knock out mice with vehicle; closed triangles, wild type mice with DAHP; and open triangles, wild type mice with vehicle. […] In this figure, closed triangles represent L-NAME administration; open circles, L-NAME+DAHP administration; closed circles, DAHP administration; and open triangles, vehicle administration. L-NAME was administered at 25 mg/kg, i.p., single dose, and DAHP was administered at 120 mg/kg, i.p., single dose. The antinociceptive efficacy of this high L-NAME dose is weaker (about 50%) than that of a moderate dose of DAHP.

In another data set the test system is sepiapterin reductase. To be noted: cited from earlier work.
Data set [1] relates to CFA-induced paw inflammation. The data set is described as follows: CFA model of inflammatory pain: Hargreaves test and paw weight. Type of data set: in vivo, rat. To be noted: NAS 50 mg/kg i.p. The procedure: FIGS. 11A-11E are a series of graphs showing the effect of DHAP on thermal hyperalgesia in the CFA model which is a model for inflammatory pain. […] On the left end of the graph, two doses of DAHP (180 mg/kg i.p.) were injected, the first 30 minutes before injection of CFA into the hindpaw, the second 4 hours after CFA (indicated with arrows D1 and D2). On the right, a single dose (dotted arrow D1) of DAHP (180 mg/kg i.p.) was injected 24 h after induction of paw inflammation without any treatment during the first 24 h following CFA injection. […] In FIGS. 11C-11D, the effects of systemically administered DAHP (180 mg/kg i.p. single dose; 11C) are compared with the effects of a single intrathecal dose (1 mg/kg i.t.; 11D) which was administered via a lumbar spinal catheter. In both cases, treatment was started 24 hours after CFA injection into the hindpaw. Because of slightly different baseline levels (11C compared with 11D) effects of DAHP after i.p. and i.t. treatment are additionally presented as percentage change of paw withdrawal latency (FIG. 11E) to allow for a direct comparison of both routes of administration.
FIG. 12 is a bar graph showing the increase of the paw weight of the inflamed paw compared with the contralateral paw. Paw weight was determined 48 hours following CFA injection. The increase of the paw weight is a measure for the inflammatory paw edema and therefore allows assessment of paw inflammation.
FIGS. 15A and 15B show the effect of the sepiapterin reductase inhibitor, N-acetyl-serotonin (NAS) on thermal hyperalgesia in the CFA model. The paw withdrawal latency (PWL) to radiant heat (Hargreaves test) is a measure for the heat sensitivity. NAS treatment (single dose of 50 mg/kg i.p.) was started 24 hours after CFA injection into the hindpaw. Data are presented as percentage change of the PWL compared with the PWL of the non-inflamed contralateral paw. […] Paw weight was determined 48 hours following CFA injection. The increase of the paw weight is a measure for the inflammatory paw edema.
Hypersensitivity was induced using the CFA model of paw inflammation. In these experiments, BH4 was injected at time “zero” after measurement of baseline paw withdrawal latency.

The conditions of data set [2]: systemically administered, low doses; cited from earlier work.
Data set [3] concerns SNI model of neuropathic pain. In words: Spared nerve injury (SNI) model of neuropathic pain, von Frey and acetone tests. Type of data set: in vivo. The method, then: FIGS. 8A-8D represent a series of graphs showing the effect of DAHP on nociceptive behavior in the SNI model of neuropathic pain. Figures on the left show the threshold to mechanical stimuli applied with von Frey hairs (von Frey threshold). Figures on the right show the duration of paw licking, shaking and lifting following acetone application to the paw as a measure for cold allodynia. In FIG. 8A, rats were treated with DAHP (180 mg/kg/d i.p.) for three days starting three days after surgery (early treatment). Nociceptive behavior was assessed daily before and after drug injection. In FIG. 8B, the treatment period was extended to five days (180 mg/kg/d i.p.) starting three days after surgery and pain behavior was assessed daily before and after drug injection and once every second day for an additional week after stopping the daily drug injections. In FIG. 8C, treatment with DAHP (180 mg/kg/d i.p. for 5 days) was started 17 days after surgery i.e. in the chronic phase without any treatment in the early phase. Nociceptive behavior was assessed once daily 3 h after drug injection. In FIG. 8D, animals received a continuous spinal infusion of DAHP (6 mg/kg/d) for 14 days. The infusion was started directly after surgery. Nociceptive behavior was assessed once daily.
FIGS. 16A-16D show the effects of systemic (16A) and intrathecal (16B) treatment with methotrexate (MTX) on the nociceptive behavior in the SNI model of neuropathic pain. […] In FIG. 16A MTX (0.2 mg/kg/d) was injected i.p. once daily starting 5 days after SNI surgery. Nociceptive behavior was assessed once daily three hours after drug injection. In FIG. 16B, MTX was administered as continuous intrathecal infusion (0.1 mg/kg/d for 14 days) starting right after SNI surgery. Nociceptive behavior was assessed once daily. FIGS. 16C and 16D show the body weight gain of animals during systemic (16C) and intrathecal (16D) MTX treatment. Determination of the weight gain was used to assess general well-being and potential toxic effects of MTX.
In this graph, closed triangles represent vehicle, i.p.; open triangles represent DAHP at 90 mg/kg/day, i.p.; open squares represent DAHP at 180 mg/kg/day, i.p.; and open circles represent DAHP at 270 mg/kg/day, i.p.
All procedures were performed in accordance with Massachusetts General Hospital animal care regulations. Adult male Sprague Dawley rats (200-300 g) were anesthetized with halothane. For the sciatic nerve transection (axotomy), the left sciatic nerve was exposed at the mid thigh level, ligated with 3/0 silk, and sectioned distally. The wound was sutured in two layers, and the animals were allowed to recover. For SNI the tibial and peroneal branch of the sciatic nerve were ligated and transected whereas the sural nerve was spared. For CCI, the sciatic nerve was loosely ligated with dexon 4/0 (three ligatures) and for the spinal ligation model the L5 spinal segmental nerve was ligated.

One may read the Ki as a measure of affinity in units of concentration, obtained from inhibition or displacement. As a reminder, the IC50 is the concentration needed to halve the response being measured.

On to `C[C@H](O)[C@H](O)[C@@H]1CNc2nc(N)[nH]c(=O)c2N1` [6S-BH4], for which, in the data set with GTP cyclohydrolase I (feedback inhibition of GTPCH), the “effectiveness relative to BH4” value is recorded as “more than one order of magnitude less effective”.

As to `C[C@H](O)[C@H](O)C1=Nc2c(nc(N)[nH]c2=O)NC1` [7,8-dihydro-L-Biopterin], in the data set with GTP cyclohydrolase I, the “potency as GTP cyclohydrolase I inhibitor relative to oxidized pterins” value is recorded as “approximately 12 times” and the Ki was 14.4 µM.

Consider `COC(=O)[C@@H](N)CCCNC(=N)N[N+](=O)[O-]` [L-NAME, N^G-Nitro-L-arginine-methyl ester], for which the “effect of L-NAME co-injection on efficacy of DAHP” value with SNI model (L-NAME 25 mg/kg i.p. + DAHP 120 mg/kg i.p.) is recorded as “does not further increase the efficacy of DAHP”. Besides, the “antinociceptive efficacy relative to a moderate dose of DAHP” value in the data set on SNI model (L-NAME 25 mg/kg i.p. single dose, weaker than DAHP) was “about 50%”.

For `C[C@H](O)C(=O)C1=Nc2c(nc(N)[nH]c2=O)NC1` [L-Sepiapterin], in the data set with GTP cyclohydrolase I, the “potency as GTP cyclohydrolase I inhibitor relative to oxidized pterins” value is 12 times. For the same molecule, at GTP cyclohydrolase I (read-out: IC50, GTP cyclohydrolase I inhibitor), the half-inhibitory concentration (IC50) was 12.7 ± 1.8 µM.

As to `O=C(CCl)NCCc1ccc(O)c(O)c1` [N-Chloroacetyldopamine], the “potency as sepiapterin reductase inhibitor relative to NAS” value in the data set with sepiapterin reductase is “increased potency”.

As to `O=C(CCl)NCCc1c[nH]c2ccc(O)cc12` [N-Chloroacetylserotonin], the “potency as sepiapterin reductase inhibitor relative to NAS” value in the data set on sepiapterin reductase is “increased potency”.

For `COCC(=O)NCCc1c[nH]c2ccc(O)cc12` [N-Methoxyacetylserotonin], in the data set on sepiapterin reductase, the “potency as sepiapterin reductase inhibitor relative to NAS” value is recorded as “increased potency”.

Take `CC(=O)NCCc1c[nH]c2ccc(O)cc12` [NAS, N-acetyl-serotonin]: the “CFA-induced inflammatory paw edema” value in data set [1] is reported as “no effect”. The thermal hyperalgesia entry in data set [1] (24 hours after CFA) was “reduction of thermal hyperalgesia”.

Turning to `C[C@H](O)[C@H](O)[C@H]1CNc2nc(N)[nH]c(=O)c2N1` [Tetrahydro-L-biopterin], the Ki on GTP cyclohydrolase I is 15.7 µM.

As to `Nc1nc2nc[nH]c2c(=O)[nH]1` [guanine], in the data set on GTP cyclohydrolase I (higher potency than DAHP), the “GTPCH inhibitory potency relative to DAHP” value was “approximately 10 fold”.

On to `CN(Cc1cnc2nc(N)nc(N)c2n1)c1ccc(C(=O)N[C@@H](CCC(=O)O)C(=O)O)cc1` [methotrexate], for which, in data set [2], the “blood brain barrier penetration” value is “does not penetrate the blood brain barrier”. Moreover, in data set [3] (MTX 0.2 mg/kg/d i.p. or 0.1 mg/kg/day continuous lumbar spinal delivery), the “pain in response to mechanical and cold allodynia” value is given as “reduction in pain”. The “acute toxicity (body weight change over time)” value in data set [3] (MTX systemic or intrathecal) was “absence of detectable acute toxicity”.
